Molecular target: T1, purified human recombinant GK (Homo sapiens, UniProt P35557)
T1 sequence (P35557 1-465): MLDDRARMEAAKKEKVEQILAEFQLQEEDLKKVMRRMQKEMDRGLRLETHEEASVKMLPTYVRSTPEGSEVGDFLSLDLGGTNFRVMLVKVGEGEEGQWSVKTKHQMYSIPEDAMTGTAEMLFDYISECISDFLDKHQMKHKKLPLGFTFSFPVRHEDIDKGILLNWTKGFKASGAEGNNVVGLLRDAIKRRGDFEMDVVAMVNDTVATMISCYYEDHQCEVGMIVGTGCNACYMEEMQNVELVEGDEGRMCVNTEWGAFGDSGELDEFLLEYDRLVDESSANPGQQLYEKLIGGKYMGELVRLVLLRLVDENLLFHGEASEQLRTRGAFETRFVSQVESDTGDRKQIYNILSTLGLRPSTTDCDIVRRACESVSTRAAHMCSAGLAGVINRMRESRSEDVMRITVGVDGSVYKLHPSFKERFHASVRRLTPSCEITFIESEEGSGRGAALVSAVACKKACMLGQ
Experiment: Glucokinase activity assay (coupled enzymatic GK/G6PD assay, NADH absorbance at 340 nm)
Assay type: biochemical
Conditions: for EC50: EC50 of % change in S0.5 of glucokinase for glucose, sigmoidal fit, read-out: EC50 (with respect to % ΔS0.5); for Emax: Emax of % change in S0.5, vehicle S0.5 = 0%, 0 mM glucose = 100%, read-out: % Emax (with respect to % ΔS0.5)
Excerpt: The glucokinase (GK) assay is a coupled enzymatic assay. GK catalyzes the first step of glycolysis, the conversion of glucose to glucose-6-phosphate (G6P) in the presence of ATP. G6P in turn is converted by glucose-6-phosphate dehydrogenase (G6PD) to 6-phosphogluconate, a process that requires NAD, resulting in NADH formation. Since the GK-catalyzed step is the rate-limiting step of this coupled enzymatic process, the rate of accumulation of 6-phosphogluconate and NADH is directly proportional to the rate of glucose phosphorylation by GK. The rate of the GK-catalyzed reaction can therefore be measured by monitoring the increase in NADH absorbance at 340 nm.
The assay is carried out according to the protocol outlined in Hariharan et al (1997), Diabetes 46: 11-16. Briefly, the test compounds are incubated in a reaction mix containing 25 mM HEPES (pH 7.2), 10 mM MgCl2, 100 mM KCl, 5 mM ATP, 2 mM DTT, 0.5 mM NAD, 1 U/ml Leuconostoc mesenteroides G6PD, 0.3 U/ml of purified human recombinant GK, and different concentrations of glucose. Enzymatic activity is calculated from the initial reaction velocity, measured from the change in NADH absorbance as a function of time.
Compounds described in formula (I), in concentration ranges from 1.0 nM to […] are tested in the purified human recombinant glucokinase assay described above.
A compound is considered to be a glucokinase activator if it, in its testable range of concentrations, yields a higher rate of glucose phosphorylation than in its absence at a particular glucose concentration, for example at 5 mM glucose.
Compounds of general formula (I) are tested in the in vitro GK enzymatic assay to monitor dose-dependent effect on glucokinase activation (in kinetic mode), as described above, at various glucose concentrations. The S0.5 of glucokinase for glucose at different concentration of each compound of interest is calculated from the following modified version of the Michaelis-Menten equation, V=Vmax[S]^n/(S0.5^n+[S]^n), where [S] is the glucose concentration and n is the Hill coefficient (taken as 1.7 to account for the sigmoidal kinetics of glucokinase with respect to glucose). The S0.5 is plotted against the log of the compound concentration. The change in the S0.5 of glucokinase (ΔS0.5) for glucose is calculated by subtracting the S0.5 at each concentration of the compound from the S0.5 in the vehicle control. The ΔS0.5 is then normalized to a percent scale, where the S0.5 in the vehicle control is set to 0% and 0 mM glucose is set to 100%. The % ΔS0.5 is then plotted against the log of the compound concentration. The EC50 and Emax of % change in S0.5 is obtained from the sigmoidal fit of the data. Detailed protocol has been described in our copending application no. WO 2008/104994 which is incorporated herein by reference. Characterization data of some representative glucokinase activators of the present disclosure, which are illustrative but not limiting, are given in table 1 below.

SMILES	EC50	Emax
O=C(Nc1ncc(F)s1)C(OC1CCOCC1)c1ccc(S(=O)(=O)C2CC2)cc1 (centres unmarked) [Example A114, 2-(4-Cyclopropanesulfonyl-phenyl)-N-(5-fluoro-thiazol-2-yl)-2-(tetrahydro-pyran-4-yloxy)-acetamide]	150 nM	92%
O=C(Nc1cc[nH]n1)C(Oc1ccc(Cl)cc1F)c1ccc(S(=O)(=O)C2CC2)cc1 (centres unmarked) [Example A45, 2-(4-Chloro-2-fluorophenoxy)-2-(4-cyclopropanesulfonylphenyl)-N-(1H-pyrazol-3-yl)acetamide]	1300 nM	90%
CC(C)Oc1ccc2nc(NC(=O)C(OC3CCOCC3)c3ccc(S(=O)(=O)C4CC4)cc3)sc2n1 (centres unmarked) [Example A82, 2-(4-Cyclopropanesulfonyl-phenyl)-N-(5-isopropoxy-thiazolo[5,4-b]pyridin-2-yl)-2-(tetrahydro-pyran-4-yloxy)-acetamide]	240 nM	94%
Cc1nc(NC(=O)C(Oc2ccc(F)cc2F)c2ccc(S(=O)(=O)C3CC3)cc2)sc1C(=O)O (centres unmarked) [Example B12, 2-[2-(4-Cyclopropanesulfonylphenyl)-2-(2,4-difluorophenoxy)acetylamino]-4-methylthiazole-5-carboxylic acid]	> 10000 nM	–
O=C(Nc1nccs1)C(Oc1ccc(Cl)cc1)c1ccc(S(=O)(=O)C2CCCC2)cc1 (centres unmarked) [Example A12, 2-(4-Chlorophenoxy)-2-(4-cyclopentanesulfonylphenyl)-N-thiazol-2-yl-acetamide]	170 nM	90%
Cn1ccc(NC(=O)C(Oc2ccc(Cl)cc2F)c2ccc(S(=O)(=O)C3CC3)cc2)n1 (centres unmarked) [Example A46, 2-(4-Chloro-2-fluorophenoxy)-2-(4-cyclopropanesulfonylphenyl)-N-(1-methyl-1H-pyrazol-3-yl)acetamide]	1370 nM	90%
O=C(Nc1ncc(F)s1)C(Oc1ccc(F)cc1F)c1ccc(S(=O)(=O)C2CCCC2)c(Cl)c1 (centres unmarked) [Example A36, 2-(3-Chloro-4-cyclopentanesulfonylphenyl)-2-(2,4-difluorophenoxy)-N-(5-fluoro-thiazol-2-yl)acetamide]	110 nM	95%
O=C(Nc1ncc(Cl)s1)C(Oc1ccc(F)cc1F)c1ccc(S(=O)(=O)C2CC2)cc1 (centres unmarked) [Example A2, N-(5-Chlorothiazol-2-yl)-2-(4-cyclopropanesulfonylphenyl)-2-(2,4-difluorophenoxy)acetamide]	130 nM	95%
O=C(O)Cc1csc(NC(=O)C(Oc2ccc(F)cc2F)c2ccc(S(=O)(=O)C3CCCC3)cc2)n1 (centres unmarked) [Example B14, {2-[2-(4-Cyclopentanesulfonylphenyl)-2-(2,4-difluorophenoxy)-acetylamino]-thiazol-4-yl}acetic acid]	1600 nM	90%
O=C(Nc1ccc(Cl)cn1)C(Oc1ccc(Cl)cc1F)c1ccc(S(=O)(=O)C2CC2)cc1 (centres unmarked) [Example A41, 2-(4-Chloro-2-fluorophenoxy)-N-(5-chloropyridin-2-yl)-2-(4-cyclopropanesulfonylphenyl)-acetamide]	460 nM	90%
O=C(Nc1ncc(F)s1)C(Oc1ccc2[nH]ccc2c1)c1ccc(S(=O)(=O)C2CC2)cc1 (centres unmarked) [Example A28, 2-(4-Cyclopropanesulfonylphenyl)-N-(5-fluorothiazol-2-yl)-2-(1H-indol-5-yloxy)acetamide]	640 nM	90%
O=C(Nc1ncc(Oc2ccc(C(=O)N3CCC3)cc2)s1)C(Oc1ccc(F)cc1F)c1ccc(S(=O)(=O)C2CC2)cc1 (single isomer, unassigned; (+)) [Example H6A, (+)N-{5-[4-(Azetidine-1-carbonyl)-phenoxy]-thiazol-2-yl}-2-(4-cyclopropanesulfonyl-phenyl)-2-(2,4-difluoro-phenoxy)-acetamide]	110 nM	93%
O=C(O)Cc1nc(NC(=O)C(Oc2ccc(F)cc2F)c2ccc(S(=O)(=O)N3CCCCC3)cc2)sc1Cl (single isomer, unassigned; (-)) [Example H3A, (−) (5-Chloro-2-{2-(2,4-difluoro-phenoxy)-2-[4-(piperidine-1-sulfonyl)-phenyl]-acetylamino}-thiazol-4-yl)-acetic acid]	430 nM	90%
Cc1cnc(NC(=O)C(Oc2ccc(Cl)cc2F)c2ccc(S(=O)(=O)C3CC3)cc2)s1 (centres unmarked) [Example A43, 2-(4-Chloro-2-fluorophenoxy)-2-(4-cyclopropanesulfonylphenyl)-N-(5-methylthiazol-2-yl)acetamide]	150 nM	95%
O=C(Nc1nncs1)C(Oc1ccc(F)cc1F)c1ccc(S(=O)(=O)C2CC2)cc1 (centres unmarked) [Example A16, 2-(4-Cyclopropanesulfonylphenyl)-2-(2,4-difluorophenoxy)-N-[1,3,4]thiadiazol-2-yl-acetamide]	7100 nM	90%
NC(=O)c1cccc(Oc2cnc(NC(=O)C(Oc3ccc(F)cc3F)c3ccc(S(=O)(=O)C4CC4)cc3)s2)c1 (centres unmarked) [Example G3, 3-{2-[2-(4-Cyclopropanesulfonyl-phenyl)-2-(2,4-difluoro-phenoxy)-acetylamino]-thiazol-5-yloxy}-benzamide]	200 nM	90%
O=C(Nc1nncs1)C(Oc1ccc(F)cc1F)c1ccc(S(=O)(=O)C2CCCC2)cc1 (centres unmarked) [Example A27, 2-(4-Cyclopentanesulfonylphenyl)-2-(2,4-difluorophenoxy)-N-[1,3,4]thiadiazol-2-yl-acetamide]	1270 nM	90%
O=C(O)Cc1ccc(Oc2cnc(NC(=O)C(OC3CCOCC3)c3ccc(S(=O)(=O)C4CC4)cc3)s2)cc1 (centres unmarked) [Example B100, (4-{2-[2-(4-Cyclopropanesulfonyl-phenyl)-2-(tetrahydro-pyran-4-yloxy)-acetylamino]-thiazol-5-yloxy}-phenyl)-acetic acid]	220 nM	91%
O=C(Nc1ncc(F)s1)C(Oc1ccc(F)cc1F)c1ccc(S(=O)(=O)C2CCCC2)cc1 (centres unmarked) [Example A11, 2-(4-Cyclopentanesulfonylphenyl)-2-(2,4-difluorophenoxy)-N-(5-fluoro-thiazol-2-yl)acetamide]	110 nM	95%
O=C(O)c1ccc(Oc2cnc(NC(=O)C(Oc3ccc(F)cc3F)c3ccc(S(=O)(=O)N4CCCCC4)cc3)s2)cc1 (centres unmarked) [Example B50, 4-(2-{2-(2,4-Difluoro-phenoxy)-2-[4-(piperidine-1-sulfonyl)-phenyl]-acetylamino}-thiazol-5-yloxy)-benzoic acid]	280 nM	90%
O=C(O)c1csc(NC(=O)C(Oc2ccc(Cl)cc2F)c2ccc(S(=O)(=O)C3CC3)cc2)n1 (centres unmarked) [Example B26, 2-[2-(4-Chloro-2-fluorophenoxy)-2-(4-cyclopropanesulfonylphenyl)acetylamino]thiazole-4-carboxylic acid]	> 10000 nM	–
O=C(Nc1ncc(F)s1)C(Oc1ccc(Cl)cc1F)c1ccc(S(=O)(=O)C2CC2)cc1 (centres unmarked) [Example A42, 2-(4-Chloro-2-fluorophenoxy)-2-(4-cyclopropanesulfonylphenyl)-N-(5-fluorothiazol-2-yl)acetamide]	120 nM	95%
O=C(Nc1cnccn1)C(Oc1ccc(Cl)cc1F)c1ccc(S(=O)(=O)C2CC2)cc1 (centres unmarked) [Example A47, 2-(4-Chloro-2-fluorophenoxy)-2-(4-cyclopropanesulfonylphenyl)-N-pyrazin-2-yl-acetamide]	1200 nM	90%
